Data published in patent publication US20220079895A1, “COMPOSITION FOR PREVENTING OR TREATING LIVER DISEASES” (AceBiomed, Inc., priority 2020, published 2022).

Tests used:
[1] = system: α-SMA (α-smooth muscle actin); test: expression of fibrosis-related gene α-SMA in liver tissues, NASH-induced model; type: in vivo, mouse; settings: high fat diet 30 weeks
Protocol: (§1) Total RNA was extracted using an RNeasy mini kit (Qiagen), and then synthesized into cDNA using a high-capacity cDNA reverse transcription kit (Thermo Fisher). The same amount of cDNA was amplified using a SYBR™ green PCR master mix and a 10 pM primer set for each gene. The amplification process was subjected to an initial denaturation process at 95° C. for 5 minutes, and repetitively replication at 95° C. for 10 seconds, 58.5° C. for 10 seconds, and 72° C. for 10 seconds for a total of 40 times.

SREBP1 [2] = test: expression of fat accumulation-related gene SREBP1 in liver tissues, NASH-induced model; type: in vivo, mouse; settings: high fat diet 30 weeks
Protocol: as §1

NASH-induced model mouse [3] = test: blood biochemical test: serum total cholesterol, NASH-induced model; type: in vivo; settings: for Total cholesterol: serum, HFD + Colchicine alone
Protocol: A total cholesterol amount of mice was measured using a Total cholesterol assay kit (Cell Biolabs). […] Thereafter, 50 μl of a cholesterol reaction reagent was added, and the reaction was performed at 37° C. for 45 minutes by shielding light. For the sample after the reaction, absorbance was measured at 540 to 570 nm using a microplate reader.

[4] = system: nonalcoholic steatohepatitis (NASH)-induced model mouse; test: H&E staining of liver tissues, fat accumulation, NASH-induced model; type: in vivo; settings: high fat diet 30 weeks
Protocol: For H&E staining, deparaffinized tissues were reacted with a 50% hematoxylin solution at room temperature for 20 minutes, reacted with 1% HCl for 1 second, and then immediately transferred to a 0.5% eosin solution and stained for 20 minutes. Thereafter, the tissue was washed with distilled water, reacted with graded alcohol and finally dehydrated with xylene. The dehydrated tissue was fixed on a coverslip using a permount.

IL-6 = test: expression of inflammation-related gene IL-6 in liver tissues, NASH-induced model; type: in vivo, mouse; settings: high fat diet 30 weeks
Protocol: as §1

NASH-induced model mouse [5] = test: blood biochemical test: serum AST, NASH-induced model; type: in vivo; settings: for AST: serum, HFD + Colchicine alone
Protocol: The activity of aspartate aminotransferase (AST) of mice was measured using an AST activity assay kit (Abcam).

TNF-α = test: expression of inflammation-related gene TNF-α in liver tissues, NASH-induced model; type: in vivo, mouse; settings: high fat diet 30 weeks
Protocol: as §1

IL-1β [6] = test: expression of IL-1β induced by palmitate in hepatocytes AML12; type: cell-based, mouse; settings: AML12 cells
Protocol: (§2) Mouse hepatocytes, AML12 cells, were incubated at 37° C., 95% air and 5% CO2 in a DMEM/F12 medium containing 5 μg/ml insulin, 5 μg/ml transferrin, 5 ng/ml selenium, 40 ng/ml dexamethasone, 10% fetal bovine serum (FBS) and 1% penicillin/streptomycin. AML12 cells pre-treated with 5 nM of colchicine and 30 μg/ml of a dipeptidyl peptidase-4 (DPP-4) inhibitor were treated with TGF-β1 (5 ng/ml) or 0.2 mM of palmitate after 8 hours, and further incubated for additional 16 hours.
as §1

collagen I [7] = test: expression of collagen I increased by TGF-β1 in hepatocytes AML12; type: cell-based, mouse; settings: AML12 cells; for additive interaction with colchicine in inhibiting the expression of collagen I: 5 nM colchicine + 30 μg/ml DPP-4 inhibitor, TGF-β1 (5 ng/ml)
Protocol: as §2, §1

[8] = system: ApoA1 (Apolipoprotein A1); test: expression of fat accumulation-related gene ApoA1 in liver tissues, NASH-induced model; type: in vivo, mouse; settings: high fat diet 30 weeks
Protocol: as §1

NASH-induced model mouse [9] = test: blood biochemical test: serum bilirubin, NASH-induced model; settings: for Bilirubin: serum, HFD + Colchicine alone
[10] = system: Dgat (Diglyceride acyltransferase); test: expression of fat accumulation-related gene Dgat in liver tissues, NASH-induced model; type: in vivo, mouse; settings: high fat diet 30 weeks
Protocol: as §1

IL-1β [11] = test: expression of inflammation-related gene IL-1β in liver tissues, NASH-induced model; type: in vivo, mouse; settings: high fat diet 30 weeks
Protocol: as §1

collagen I [12] = test: expression of fibrosis-related gene collagen I in liver tissues, NASH-induced model; type: in vivo, mouse; settings: high fat diet 30 weeks
Protocol: as §1

TGF-β1 = test: expression of fibrosis-related gene TGF-β1 in liver tissues, NASH-induced model; type: in vivo, mouse; settings: high fat diet 30 weeks
Protocol: as §1

NASH-induced model mouse [13] = test: blood biochemical test: serum triglyceride, NASH-induced model; type: in vivo; settings: for Triglyceride: serum, HFD + Colchicine alone
Protocol: Triglyceride levels in mice were measured using an EZ-Triglyceride quantification assay kit (Dogen Bio). 1 ml of 5% NP-40 was added to a mouse serum sample, homogenized on ice, and then sufficiently cooled at room temperature. The sample in which all triglycerides were dissolved by heating once more was centrifuged at 13,000 rpm for 2 minutes, and then an insoluble material was removed, and the sample was diluted 10-fold with distilled water before assay. 2 μl of lipase was added to the sample dispensed in a 96 well plate by 90 μl and reacted for 20 minutes at room temperature, and then the reaction mixture was added to each sample by 50 μl, and further reacted at room temperature for 30 minutes in a light-shielded state. Thereafter, absorbance was measured at 570 nm using a microplate reader.

NASH-induced model mouse [14] = test: superoxide (DHE) in liver tissues, NASH-induced model; type: in vivo; settings: high fat diet 30 weeks
Protocol: In order to measure production of superoxide in liver tissues of mice, dihydroethidium (DHE) was used as a superoxide fluorescent indicator. In summary, deparaffinized liver tissue slides were reacted at 37° C. for 30 minutes with 10 μM DHE in a light-shielded humidity chamber. After the reaction, fluorescence indicating DHE was measured through a filter in a wavelength band of 580 nm in an Olympus FV1000 fluorescence microscope.

NASH-induced model mouse [15] = test: hydroxyproline in liver tissues, NASH-induced model; type: in vivo; settings: high fat diet 30 weeks
Protocol: 100 mg of liver tissue was homogenized with physiological saline, and then a liver tissue supernatant was separated. The separated supernatant was hydrolyzed at 120° C. for 3 hours by adding the same amount of 12 N HCl. The cooled sample was vortexed and then centrifuged at 10,000 g for 3 minutes, and absorbance was measured at 550 nm using a final microplate reader by using a hydroxyproline assay kit.

NASH-induced model mouse [16] = test: blood biochemical test: serum ALT, NASH-induced model; type: in vivo; settings: for ALT: serum, HFD + Colchicine alone
Protocol: The activity of alanine aminotransferase (ALT) of mice was measured using an ALT activity assay kit (Sigma-Aldrich).

SREBP1 [17] = test: expression of SREBP1 induced by palmitate in hepatocytes AML12; type: cell-based, mouse; settings: AML12 cells; for additive interaction with colchicine in inhibiting the expression of SREBP1: 5 nM colchicine + 30 μg/ml DPP-4 inhibitor, 0.2 mM palmitate
Protocol: as §2, §1

[18] = colchicine 40 μg/kg alone, orally once a day
[19] = 5 nM colchicine alone, 0.2 mM palmitate after 8 hours, additional 16 hours
[20] = co-administration with colchicine, for each sitagliptin concentration
[21] = high-fat diet 30 weeks, sitagliptin co-administered with colchicine by concentration
[22] = co-administration with colchicine 40 μg/kg, for each sitagliptin concentration

Compound: COc1cc2c(c(OC)c1OC)-c1ccc(OC)c(=O)cc1[C@@H](NC(C)=O)CC2 [Colchicine, colchicine]
- expression of α-SMA in liver tissues ([1]; colchicine 40 μg/kg alone): reduced
- expression of SREBP1 in liver tissues (SREBP1 [2]; colchicine 40 μg/kg alone): reduced
- Total cholesterol (NASH-induced model mouse [3]): 264.8 ± 0.87 mg/dL
- Total cholesterol (NASH-induced model mouse [3]; listed as colchicine): decreased
- fat accumulation in liver tissues (H&E) [4, 18]: slightly reduced
- expression of IL-6 in liver tissues (IL-6; colchicine 40 μg/kg alone): reduced
- AST (NASH-induced model mouse [5]): 200.7 ± 2.74 U/L
- AST (NASH-induced model mouse [5]; listed as colchicine): decreased
- expression of TNF-α in liver tissues (TNF-α; colchicine 40 μg/kg alone): reduced
- expression of IL-1β induced by palmitate (IL-1β [6]; [19]): reduced
- expression of collagen I increased by TGF-β1 (collagen I [7]; 5 nM colchicine alone, TGF-β1 (5 ng/ml) after 8 hours, additional 16 hours): reduced
- expression of ApoA1 in liver tissues ([8]; colchicine 40 μg/kg alone): reduced
- Bilirubin (NASH-induced model mouse [9]): 0.57 ± 0.05 mg/dL
- Bilirubin (NASH-induced model mouse [9]; listed as colchicine): decreased
- expression of Dgat in liver tissues ([10]; colchicine 40 μg/kg alone): reduced
- expression of IL-1β in liver tissues (IL-1β [11]; colchicine 40 μg/kg alone): reduced
- expression of collagen I in liver tissues (collagen I [12]; colchicine 40 μg/kg alone): reduced
- expression of TGF-β1 in liver tissues (TGF-β1; colchicine 40 μg/kg alone): reduced
- Triglyceride (NASH-induced model mouse [13]): 201.9 ± 0.27 mg/dL
- Triglyceride (NASH-induced model mouse [13]; listed as colchicine): decreased
- production of superoxide in liver tissues (NASH-induced model mouse [14]; colchicine 40 μg/kg alone): reduced
- accumulation of hydroxyproline in liver tissues (NASH-induced model mouse [15]; [18]): reduced
- ALT (NASH-induced model mouse [16]): 154.7 ± 4.24 U/L
- ALT (NASH-induced model mouse [16]; listed as colchicine): decreased
- expression of SREBP1 induced by palmitate (SREBP1 [17]; [19]): reduced

Compound: Cc1cc(N2CCN([C@@H]3CN[C@H](C(=O)N4CCSC4)C3)CC2)n(-c2ccccc2)n1 [teneligliptin]
- additive interaction with colchicine in inhibiting the expression of collagen I (collagen I [7]): slight additive interaction
- additive interaction with colchicine in inhibiting the expression of SREBP1 (SREBP1 [17]): excluding

Compound: CC(C)(C)OC[C@@H]1C(=O)NCCN1C(=O)C[C@H](N)Cc1cc(F)c(F)cc1F [evogliptin]
- additive interaction with colchicine in inhibiting the expression of collagen I (collagen I [7]): slight additive interaction

Compound: N#C[C@@H]1CCCN1C(=O)CNC12CC3CC(CC(O)(C3)C1)C2 [vildagliptin]
- additive interaction with colchicine in inhibiting the expression of collagen I (collagen I [7]): slight additive interaction

Compound: N[C@@H](CC(=O)N1CCn2c(nnc2C(F)(F)F)C1)Cc1cc(F)c(F)cc1F [sitagliptin]
- effect of reducing the expression of α-SMA, interaction with colchicine [1, 20]: additive interaction
- effect of reducing the expression of SREBP1, interaction with colchicine (SREBP1 [2]; [20]): additive interaction
- level of cholesterol in serum, additive interaction compared with colchicine alone (NASH-induced model mouse [3]; [21]): decreases further
- steatosis reduction effect, interaction with colchicine [4, 22]: additive interaction
- effect of reducing the expression of IL-6, interaction with colchicine (IL-6; [20]): additive interaction
- level of AST in serum, additive interaction compared with colchicine alone (NASH-induced model mouse [5]; [21]): decreases further
- effect of reducing the expression of TNF-α, interaction with colchicine (TNF-α; [20]): additive interaction
- additive interaction with colchicine in inhibiting the expression of IL-1β (IL-1β [6]; 5 nM colchicine + 30 μg/ml DPP-4 inhibitor, 0.2 mM palmitate): most excellent additive interaction
- additive interaction with colchicine in inhibiting the expression of collagen I (collagen I [7]): most excellent additive interaction
- effect of reducing the expression of ApoA1, interaction with colchicine [8, 20]: additive interaction
- level of bilirubin in serum, additive interaction compared with colchicine alone (NASH-induced model mouse [9]; [21]): decreases further
- effect of reducing the expression of Dgat, interaction with colchicine [10, 20]: additive interaction
- effect of reducing the expression of IL-1β, interaction with colchicine (IL-1β [11]; [20]): additive interaction
- effect of reducing the expression of collagen I, interaction with colchicine (collagen I [12]; [20]): additive interaction
- effect of reducing the expression of TGF-β1, interaction with colchicine (TGF-β1; [20]): additive interaction
- level of triglyceride in serum, additive interaction compared with colchicine alone (NASH-induced model mouse [13]; [21]): decreases further
- effect of reducing the production of superoxide, interaction with colchicine (NASH-induced model mouse [14]; [20]): additive interaction
- hydroxyproline inhibitory effect, interaction with colchicine (NASH-induced model mouse [15]; [22]): additive interaction
- level of ALT in serum, additive interaction compared with colchicine alone (NASH-induced model mouse [16]; [21]): decreases further
- additive interaction with colchicine in inhibiting the expression of SREBP1 (SREBP1 [17]): most excellent additive interaction
